PMC6245477, “Discovery of a Novel CCR5 Antagonist Lead Compound Through Fragment Assembly” (Molecules, 2008)

Key:
[1] = biological target: T1, CCR5 (Homo sapiens, UniProt P51681); test: Calcium mobilization assay (RANTES-induced, Fluo-4 AM); assay type: cell-based; details: for IC50: CHO cells stably expressing CCR5 and Gα16, RANTES 30 nM, read-out: IC50 (antagonistic activity against CCR5); for effect of structural change on potency relative to compound 2: SAR statement from IC50 values
T1 construct: expressed in transfected cells
T1 sequence (P51681 whole entry): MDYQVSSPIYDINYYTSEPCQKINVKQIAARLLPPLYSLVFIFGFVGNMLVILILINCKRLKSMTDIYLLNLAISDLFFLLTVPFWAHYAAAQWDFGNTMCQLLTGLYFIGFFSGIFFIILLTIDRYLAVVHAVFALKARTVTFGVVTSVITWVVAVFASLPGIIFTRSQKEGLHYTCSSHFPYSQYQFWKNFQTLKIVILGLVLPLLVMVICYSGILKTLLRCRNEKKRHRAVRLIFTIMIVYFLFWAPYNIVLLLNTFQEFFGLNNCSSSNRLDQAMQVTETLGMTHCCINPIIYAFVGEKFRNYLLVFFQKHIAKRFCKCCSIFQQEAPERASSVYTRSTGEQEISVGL
Protocol: For the primary assay, the percent inhibitory rates of the compounds 1, 2 and 2a-l at 1 μM were measured. Except compounds 2a and 2c, the other twelve compounds were remarkably antagonist of CCR5 activity. Therefore, we determined their IC50 values (Table 1).
CHO cells stably expressing CCR5 and Gα16 were loaded with 2 μmol/L Fluo-4 AM in Hanks balanced salt solution (HBSS, containing KCl 5.4 mM, Na2HPO4 0.3 mM, KH2PO4 0.4 mM, NaHCO3 4.2 mM, CaCl2 1.3 mM, MgCl2 0.5 mM, Mg2SO4 0.6 mM, NaCl 137 mM, BSA 5 g/L, Glucose 5.6 mM, Sulfinpyrazone 250 μM, pH 7.4) at 37 °C for 45 minutes. After the cells being rinsed with the reaction buffer, 50 μL HBSS containing known antagonists (positive control), compounds of interest or DMSO (negative control, final concentration 1%) were added. After incubation at room temperature for 10 minutes, 25 μL RANTES (final concentration 30 nM) was dispensed into the well using a FlexStation II micro-plate reader (Molecular Devices, Sunnyvale, CA, USA) and intracellular calcium change was recorded with an excitation wavelength of 485 nm and emission wavelength of 525 nm. The half maximal inhibitory concentrations (IC50s) of compounds were determined with GraphPad Prism software by constructing their dose-response curves.

| Compound | melting point [°C] | IC50 [1] [nM] | effect of structural change on potency relative to compound 2 [1] | fold increase in potency compared with compound 2 ([1]; ratio of IC50 values, vs compound 2) [fold] | fold change of IC50 compared to compound 1 ([1]; ratio of IC50 values, vs compound 1) [fold] |
| --- | --- | --- | --- | --- | --- |
| O=C(N[C@@H](CCN1CCN(c2ccnc3cc(Cl)ccc23)CC1)c1ccccc1)c1ccc(F)cc1 [Compound 2a, N-((S)-3-(4-(7-Chloroquinolin-4-yl)piperazin-1-yl)-1-phenylpropyl)-4-fluorobenzamide] | 77 to 79 |  |  |  |  |
| O=C(N[C@@H](CCN1CCN(c2ncnc3[nH]cnc23)CC1)c1ccccc1)C1CCC(F)(F)CC1 [Compound 2h, N-((S)-3-(4-(9H-Purin-6-yl)piperazin-1-yl)-1-phenylpropyl)-4,4-difluorocyclohexanecarboxamide] |  | > 10000 |  |  |  |
| Cc1ccc(S(=O)(=O)N[C@@H](CCN2CCN(c3ccnc4cc(Cl)ccc34)CC2)c2ccccc2)cc1 [Compound 2f, N-((S)-3-(4-(7-Chloroquinolin-4-yl)piperazin-1-yl)-1-phenylpropyl)-4-methylbenzenesulfonamide] | 132 to 136 | > 10000 | decrease or loss of potency |  |  |
| O=C(N[C@@H](CCN1CCN(c2ccc3ccccc3n2)CC1)c1ccccc1)C1CCC(F)(F)CC1 [Compound 2j, N-((S)-3-(4-(Quinolin-2-yl)piperazin-1-yl)-1-phenylpropyl)-4,4-difluorocyclohexanecarboxamide] | 50 to 53 | 233 |  | 3 |  |
| O=C(C1CCC(F)(F)CC1)N1CCN(c2ccnc3cc(Cl)ccc23)CC1 [Compound 2l, (4-(7-chloroquinolin-4-yl)piperazin-1-yl)(4,4-difluorocyclohexyl)methanone] |  | > 1000 | nearly leads to a loss of potency |  |  |
| O=C(N[C@@H](CCN1CCN(c2ccncc2)CC1)c1ccccc1)C1CCC(F)(F)CC1 [Compound 2i, N-((S)-3-(4-(pyridin-4-yl)piperazin-1-yl)-1-phenylpropyl)-4,4-difluorocyclohexanecarboxamide] |  | > 10000 |  |  |  |
| O=C(N[C@@H](CCN1CCN(c2ncccn2)CC1)c1ccccc1)C1CCC(F)(F)CC1 [Compound 2g, N-((S)-3-(4-(Pyrimidin-2-yl)piperazin-1-yl)-1-phenylpropyl)-4,4-difluorocyclohexanecarboxamide] |  | > 1000 |  |  |  |
| O=C(Cc1ccccc1)N[C@@H](CCN1CCN(c2ccnc3cc(Cl)ccc23)CC1)c1ccccc1 [Compound 2e, N-((S)-3-(4-(7-Chloroquinolin-4-yl)piperazin-1-yl)-1-phenylpropyl)-2-phenylacetamide] | 69 to 72 | > 10000 |  |  |  |
| O=C(CCC(=O)N1CCN(c2ccnc3cc(Cl)ccc23)CC1)N1CCN(c2ccnc3cc(Cl)ccc23)CC1 [Compound 1, 1,4-bis(4-(7-chloroquinolin-4-yl)piperazin-1-yl)butane-1,4-dione] |  | 2000 |  |  |  |

The remaining lines, values ahead:

| melting point [°C] | IC50 [1] [nM] | effect of structural change on potency relative to compound 2 [1] | fold increase in potency compared with compound 2 ([1]; ratio of IC50 values, vs compound 2) [fold] | fold change of IC50 compared to compound 1 ([1]; ratio of IC50 values, vs compound 1) [fold] | Compound |
| --- | --- | --- | --- | --- | --- |
| 153 to 158 | 2660 |  |  |  | O=C(N[C@@H](CCN1CCN(c2ccnc3cc(Cl)ccc23)CC1)c1ccccc1)C1CCCCC1 [Compound 2b, N-((S)-3-(4-(7-Chloroquinolin-4-yl)piperazin-1-yl)-1-phenylpropyl)cyclohexanecarboxamide] |
| 56 to 59 | > 1000 |  |  |  | O=C1CCC(C(=O)N[C@@H](CCN2CCN(c3ccnc4cc(Cl)ccc34)CC2)c2ccccc2)CC1 [Compound 2d, N-((S)-3-(4-(7-Chloroquinolin-4-yl)piperazin-1-yl)-1-phenylpropyl)-4-oxocyclohexanecarboxamide] |
|  | 692 |  |  | 3 | O=C(N[C@@H](CCN1CCN(c2ccnc3cc(Cl)ccc23)CC1)c1ccccc1)C1CCC(F)(F)CC1 [Compound 2, N-((S)-3-(4-(7-Chloroquinolin-4-yl)piperazin-1-yl)-1-phenylpropyl)-4,4-difluorocyclohexanecarbox-amide] |
|  | 669 | no effect on potency |  |  | O=C(NC(CCN1CCN(c2ccnc3cc(Cl)ccc23)CC1)c1ccccc1)C1CCC(F)(F)CC1 (centres unmarked) [Compound 2k, N-(3-(4-(7-Chloroquinolin-4-yl)piperazin-1-yl)-1-phenylpropyl)-4,4-difluorocyclohexanecarboxamide] |
